Laboratory results: PubChem BioAssay AID330 (DTP/NCI, 2004)
“And” between values parts separate entries of the source, which are not always exact repeats. Equal entries are not always repeated. Inconclusive results and toxic doses are left out. How the source made its calls: active means survival T/C of 150% or more; inactive means T/C below 125% in these data.

Tested on: P388 leukemia ip, CD2F1 mice, survival T/C
Test: NCI In Vivo Anticancer Drug Screen. Data for tumor model P388 Leukemia (intraperitoneal) in CD2F1 (CDF1) mice
Conditions: endpoint: median survival time, higher = longer survival
Summary of the method: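 Mice carrying the transplanted tumor received test compound or vehicle. Survival was recorded in each group, and the value is the treated-group measurement divided by that of the vehicle-treated control group.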

[1] = dose: 50.0 mg/kg/injection, schedule: Q01DX009 (ip), vehicle: saline with Tween-80
[2] = dose: 100.0 mg/kg/injection, schedule: Q01DX009 (ip), vehicle: saline with Tween-80
[3] = dose: 200.0 mg/kg/injection, schedule: Q01DX009 (ip), vehicle: saline with Tween-80
[4] = dose: 50.0 mg/kg/injection, schedule: Q01DX005 (ip), vehicle: saline with Tween-80
[5] = dose: 100.0 mg/kg/injection, schedule: Q01DX005 (ip), vehicle: saline with Tween-80
[6] = dose: 200.0 mg/kg/injection, schedule: Q01DX005 (ip), vehicle: saline with Tween-80
[7] = dose: 60.0 mg/kg/injection, schedule: Q01DX005 (ip), vehicle: Klucel (hydroxypropylcellulose) (HPC)
[8] = dose: 25.0 mg/kg/injection, schedule: Q01DX009 (ip), vehicle: saline with Tween-80
[9] = dose: 100.0 mg/kg/injection, schedule: Q04DX002 (ip), vehicle: saline with Tween-80
[10] = dose: 200.0 mg/kg/injection, schedule: Q04DX002 (ip), vehicle: saline with Tween-80
[11] = dose: 60.0 mg/kg/injection, schedule: Q01DX005 (ip), vehicle: saline with Tween-80
[12] = dose: 120.0 mg/kg/injection, schedule: Q01DX005 (ip), vehicle: saline with Tween-80
[13] = dose: 120.0 mg/kg/injection, schedule: Q01DX005 (ip), vehicle: Klucel (hydroxypropylcellulose) (HPC)
[14] = dose: 240.0 mg/kg/injection, schedule: Q01DX005 (ip), vehicle: Klucel (hydroxypropylcellulose) (HPC)

Measured: T/C

CC(C)(C)C(=O)CC(=O)C(C)(C)C.[Cl][Sb]1([Cl])[c]2ccccc2Cc2cccc[c]21
inactive: [1] 100 % of control | [2] 108 % of control | [3] 107 % of control

CN(C(=O)C(F)(F)F)[Si](C)(C)C
inactive: [4] 100 % of control | [5] 105 % of control | [6] 95 % of control

OC(c1ccccc1)C(C(c1ccccc1)N1CCCc2ccccc21)N1CCOCC1 (centres undefined)
inactive: dose: 50.0 mg/kg/injection, schedule: Q01DX005 (ip), vehicle: Klucel (hydroxypropylcellulose) (HPC) 99 % of control | dose: 100.0 mg/kg/injection, schedule: Q01DX005 (ip), vehicle: Klucel (hydroxypropylcellulose) (HPC) 93 % of control | dose: 200.0 mg/kg/injection, schedule: Q01DX005 (ip), vehicle: Klucel (hydroxypropylcellulose) (HPC) 90 % of control

CC(C)(C)c1cc(C(C)(C)O)c2c(c1)C(C)(C)OS2(C)Cl (centres undefined)
inactive: dose: 50.0 mg/kg/injection, schedule: Q04DX003 (ip), vehicle: saline with Tween-80 104 % of control

CCCCCCCCCCCCCC(=O)Nc1ncc([N+](=O)[O-])s1
inactive: dose: 50.0 mg/kg/injection, schedule: Q01DX009 (ip), vehicle: Klucel (hydroxypropylcellulose) (HPC) 94 % of control | dose: 100.0 mg/kg/injection, schedule: Q01DX009 (ip), vehicle: Klucel (hydroxypropylcellulose) (HPC) 94 % of control | dose: 200.0 mg/kg/injection, schedule: Q01DX009 (ip), vehicle: Klucel (hydroxypropylcellulose) (HPC) 100 % of control

Cc1cnc2cc(-c3ccccc3)[nH]c2n1
inactive: dose: 15.0 mg/kg/injection, schedule: Q01DX005 (ip), vehicle: Klucel (hydroxypropylcellulose) (HPC) 90 % of control | dose: 30.0 mg/kg/injection, schedule: Q01DX005 (ip), vehicle: Klucel (hydroxypropylcellulose) (HPC) 87 % of control | [7] 88 % of control

CN1CCC2(CC1)COCc1ccccc12
inactive: [8] 101 % of control | [1] 104 % of control

O=C1C2(Cl)C3CCC4C5CCC3C1(Cl)C5(Cl)C42Cl (centres undefined)
inactive: [9] 107 % of control | [10] 100 % of control

O=[N+]([O-])c1cc(CN(CCO)CCO)c(O)c2ncccc12
inactive: [11] 104 % of control | [12] 109 % of control

O=C(CC(c1ccncc1)C(C(=O)c1ccc(Cl)cc1)C(c1ccncc1)C(C(=O)c1ccc(Cl)cc1)C(O)c1ccncc1)c1ccc(Cl)cc1 (centres undefined)
inactive: [4] 101 % of control | [5] 93 % of control | [6] 93 % of control

COc1cc2c(c(=O)c3ccccc3n2C)c2c1c(=O)c1ccccc1n2C
inactive: [7] 96 % of control | [13] 98 % of control

O=C1CCCC1C(=S)S (centres undefined)
inactive: dose: 100.0 mg/kg/injection, schedule: Q04DX003 (ip), vehicle: saline 102 % of control | dose: 200.0 mg/kg/injection, schedule: Q04DX003 (ip), vehicle: saline 102 % of control

C=C1C(=O)OC2C[C@@]3(C)CC(O)C[C@H](C)C3=CC12 (some centres undefined)
inactive: dose: 10.0 mg/kg/injection, schedule: Q01DX009 (ip), vehicle: distilled water + Tween-80 + alcohol 103 % of control | dose: 20.0 mg/kg/injection, schedule: Q01DX009 (ip), vehicle: distilled water + Tween-80 + alcohol 111 % of control | dose: 37.5 mg/kg/injection, schedule: Q01DX009 (ip), vehicle: distilled water + Tween-80 + alcohol 120 % of control | dose: 40.0 mg/kg/injection, schedule: Q01DX009 (ip), vehicle: distilled water + Tween-80 + alcohol 117 % of control | dose: 75.0 mg/kg/injection, schedule: Q01DX009 (ip), vehicle: distilled water + Tween-80 + alcohol 123 % of control

CC(C)(C)c1ccc2c(c1)C(O)(c1ccccc1)C1OC1(C(C)(C)C)C2=O (centres undefined)
inactive: dose: 50.0 mg/kg/injection, schedule: Q01DX009 (ip), vehicle: saline 106 % of control | dose: 100.0 mg/kg/injection, schedule: Q01DX009 (ip), vehicle: saline 100 % of control | dose: 200.0 mg/kg/injection, schedule: Q01DX009 (ip), vehicle: saline 91 % of control

COC1(OC)OC(c2ccccc2)=C(c2ccccc2)C(C#N)(C#N)C1(OC)OC
inactive: [7] 91 % of control | [13] 88 % of control | [14] 94 % of control

CN(C)C1CS(=O)(=O)C1c1ccccc1 (centres undefined)
inactive: dose: 12.5 mg/kg/injection, schedule: Q01DX009 (ip), vehicle: saline with Tween-80 100 % of control and 110 % of control | [8] 110 % of control and 95 % of control | [1] 112 % of control and 95 % of control | [2] 102 % of control and 103 % of control and 97 % of control | [3] 102 % of control

Cn1c(=O)[nH]c(=O)c2nc(-c3ccc(Cl)cc3)cnc21
inactive: [9] 94 % of control | [10] 97 % of control | dose: 400.0 mg/kg/injection, schedule: Q04DX002 (ip), vehicle: saline with Tween-80 97 % of control

C=CCNCC(O)C(F)(F)C(F)(F)C(F)(F)C(F)(F)C(F)(F)C(F)(F)F (centres undefined)
inactive: [11] 101 % of control | [12] 101 % of control | dose: 240.0 mg/kg/injection, schedule: Q01DX005 (ip), vehicle: saline with Tween-80 109 % of control

Fc1ccc2[nH]cc(C3CCCN4CCCCC34)c2c1 (centres undefined)
inactive: dose: 12.5 mg/kg/injection, schedule: Q01DX001 (ip), vehicle: saline with Tween-80 95 % of control | dose: 25.0 mg/kg/injection, schedule: Q01DX001 (ip), vehicle: saline with Tween-80 101 % of control | dose: 50.0 mg/kg/injection, schedule: Q01DX001 (ip), vehicle: saline with Tween-80 102 % of control | dose: 100.0 mg/kg/injection, schedule: Q01DX001 (ip), vehicle: saline with Tween-80 101 % of control

Cc1cccc(NC(=O)Nc2ccc(F)cc2)n1
inactive: [7] 101 % of control | [13] 96 % of control | [14] 100 % of control

c1ccc([C@H]2CN3CCSC3=N2)cc1
inactive: dose: 1.25 mg/kg/injection, schedule: Q01DX009 (ip), vehicle: saline 101 % of control | dose: 2.5 mg/kg/injection, schedule: Q01DX009 (ip), vehicle: saline 97 % of control | dose: 5.0 mg/kg/injection, schedule: Q01DX009 (ip), vehicle: saline 101 % of control | dose: 6.9 mg/kg/injection, schedule: Q01DX005 (ip), vehicle: saline 98 % of control | dose: 10.0 mg/kg/injection, schedule: Q01DX009 (ip), vehicle: saline 99 % of control | dose: 11.5 mg/kg/injection, schedule: Q01DX001 (ip), vehicle: saline 100 % of control and 109 % of control | dose: 11.5 mg/kg/injection, schedule: Q01DX005 (ip), vehicle: saline 103 % of control | dose: 19.2 mg/kg/injection, schedule: Q01DX001 (ip), vehicle: saline 99 % of control and 109 % of control | dose: 19.2 mg/kg/injection, schedule: Q01DX005 (ip), vehicle: saline 105 % of control | dose: 20.0 mg/kg/injection, schedule: Q01DX009 (ip), vehicle: saline 113 % of control | dose: 32.0 mg/kg/injection, schedule: Q01DX001 (ip), vehicle: saline 99 % of control

O=C(OCC12OC1C(=O)C1OC1C2O)c1ccccc1 (centres undefined)
inactive: dose: 1.88 mg/kg/injection, schedule: Q04DX002 (ip), vehicle: saline with Tween-80 104 % of control | dose: 3.75 mg/kg/injection, schedule: Q04DX002 (ip), vehicle: saline with Tween-80 105 % of control | dose: 7.5 mg/kg/injection, schedule: Q04DX002 (ip), vehicle: saline with Tween-80 101 % of control

CC(O)C(O)C(O)C(O)C=O (centres undefined)
inactive: dose: 60.0 mg/kg/injection, schedule: Q01DX005 (ip), vehicle: saline 109 % of control | dose: 240.0 mg/kg/injection, schedule: Q01DX005 (ip), vehicle: saline 100 % of control
